Laboratory results reported in patent US10131558B1, “Compositions, methods, and/or systems for managing sulfide” (priority 2016, dated 2018).
Values joined by “and” are separate entries in the source; they are usually repeats but may differ in a detail not shown here. Identical values can stand only once.

Experiments:
[1] = Treatment of 2,4-D with hydrogen peroxide alone against hydrogen peroxide/Fe-gluconate; settings: 250 mL; 200 microliters 50% hydrogen peroxide, plus 200 microliters Fe-GLC in the combination; after four hours; untreated 130 ppb
Protocol: The dissolved sodium bicarbonate increased the alkalinity of the water somewhat, causing the water to mimic a natural water source. Two hundred fifty milliliters of this solution was distributed into three 500 mL Erlenmeyer flasks. […] The flasks were then covered with parafilm and swirled to facilitate mixing of the solution. After four hours a sample from each flask was taken to the pesticide lab at Virginia Tech and analyzed by gas chromatography (GC) for 2,4-D. The findings were as follows: […]

[2] = Treatment of groundwater contaminated with BTEX and MtBE; settings: 250 mL groundwater; 1 mL 35% H2O2, plus 1 mL Fe-GLC in the combination; untreated 56 ppb
[3] = as above; settings: 250 mL groundwater; 1 mL 35% H2O2, plus 1 mL Fe-GLC in the combination; untreated 34 ppb
[4] = as above; settings: 250 mL groundwater; 1 mL 35% H2O2, plus 1 mL Fe-GLC in the combination; untreated 171 ppb
[5] = as above; settings: 250 mL groundwater; 1 mL 35% H2O2, plus 1 mL Fe-GLC in the combination; untreated 159 ppb
[6] = as above; settings: 250 mL groundwater; 1 mL 35% H2O2, plus 1 mL Fe-GLC in the combination; untreated 27 ppb
[7] = test system: Fecal Coliform; experiment: Disinfecting wastewater, peroxide alone vs Fe-GLC and peroxide; type: cell-based; settings: 20 mg H2O2 (50 microliters 35%), plus 50 microliters Fe-GLC in the combination; after twenty minutes; control 2200
Description: A sample of wastewater was collected from the influent of the chlorine contact chamber of the York River Wastewater Treatment Plant in Yorktown, Va. The samples were divided equally into three clean 500 milliliter sample containers from the single sample taken. The first sample served as a control and was set aside. […] Each sample was capped and shaken briefly to mix the contents. After twenty minutes, sub-samples were taken from each vessel and pored into fecal coliform sample containers for analysis at the Hampton Roads Sanitary District lab.

[8] = Vapor suppression spray test, hydrogen sulfide above test water; settings: no treatment 18
Protocol: A solution of ferric glucontate treatment was prepared using 2.0 M ferric gluconate solution along with distilled water to achieve a final concentration of ferric gluconate at 5 mg/ml, as ferric iron.
A five gallon bucket containing five liters of de-ionized water was infused with 10 parts per million of total sulfide using technical grade anhydrous Sodium Hydrosulfide. The pH of the water was then adjusted to a pH of 7.0 using a dilute solution of hydrochloric acid.
After cleaning the bucket for control testing for each study, five additional liters of de-ionized water was added and the same quantity of sulfide was infused into the fresh water and the pH adjusted to 7.0.

[9] = 10 min; 33 mg/l H2O2 (+44 μg/l VTX as total iron in the combination)
Protocol: This step was seen to minimize the amount of natural oxidation of added sulfide by sulfide-oxidizing bacteria present in the biosolids. Sodium hydrosulfide was added to 35 liters of wastewater to achieve a starting total sulfide concentration of ˜10 mg/l sulfide. The pH was adjusted within the aquarium to a pH of 7.0 using a dilute solution of hydrochloric acid.
The Odalog was affixed using a ring stand to achieve a one centimeter gap between the intake of the Odalog and the surface of the aquarium. […] Wastewater was pulled from near the bottom of the aquarium using a Watson-Marlow Peristaltic Pump capable of delivering 0.001-190 mls/minute. […] The volume of the line prior to discharge equated to ˜100 milliliters. A delivery spray system was mimicked by drilling small holes (0.35 mm) into 0.25 inch tubing distributed evenly above the aquarium. […] A filtration devise was installed in-line to minimize particle clogging with the intake in the tank above the settled biosolids to aid in this process.
No catalyst was added along with the peroxide in Treatment 3.
Testing for total sulfide in solution was conducted prior to beginning treatment at three depths.

[10] = Treatment of sulfides in municipal wastewater using ferric chelants and hydrogen peroxide
Protocol: Total sulfides were tested for using Standard Methods 4500-S^2− D with a Hach Chemical Company (of Loveland, Colo.) DR 2000 Spectrophotometer and reagents from Hach specific for this particular test. To keep total sulfides within the range of the test, samples were diluted with distilled water prior to conducting the test as per Hach instructions.
Tests for total sulfide were conducted after 5, 15, and 30 minutes of contact time on each of the seven liter test jars.

[11] = after 2 days; cited from earlier work
[12] = test system: total heterotrophic bacteria; experiment: Disinfection of wastewater using chelated iron compounds; type: cell-based; settings: 30 min, raw average 18,188 CFUs
Protocol: The clarified supernatant was then pored off of the top of the settled solids within the sample. The supernatant was then mixed and four samples were collected to determine untreated heterotrophic bacteria counts. […] were dissolved in distilled water at 0.4334M. Ferric chloride was added in amounts to achieve saturation of chelant sites on the respective chelants. […] Twenty individual liter samples of supernatant were then decanted from the well-mixed wastewater sample for testing. Four chelated iron products with peroxide were tested at two test concentrations and compared to samples receiving peroxide only and iron chelate only. […] Samples were then decanted to sterile sample containers containing sodium thiosulfate to stop the oxidation process and preserve the sample. Samples were then placed in a refrigerator until all samples were finished. Samples were packaged in a standard cooler with ice packs and sent via overnite delivery to ProChem Labs in Lynchburg, Va. for analysis for total heterotrophic bacteria counts.

[13] = Treatment of sulfides in municipal wastewater using ferric chelants and ozone; settings: ozone ~13.4 ppm, 4 ppm ferric chelant where used; for sulfide remaining: start 13.70
Description: The raw wastewater received a dose of 4 ppm of each of the four ferric chelants (mass calculated as chelant) just prior to addition of ozone.
Ozone addition was accomplished using an ozone generator from Ozone Solutions, Sioux Center, Iowa. The generator was capable of generating up to 2 grams per hour of ozone. Injection of ozone into the wastewater was accomplished using an injection system from Ozone Solutions called the H2O-Mini. The unit is designed to treat from 1.5 to 5.7 liters per minute of wastewater. The unit was set up to deliver 6.7 mg/minute of dissolved ozone (assumed the 80% efficiency of dissolution noted by the manufacturer) to wastewater passing the injection nozzle within the H2O-mini. Each test was designed for maximum wastewater flow through the H2O-mini (5.7 liters/min).
An objective of the study will be to treat most, but not all, of the sulfide present within the individual test samples in order to determine which treatment was more efficient than the others.
Samples were taken over twenty minutes of contact time from the recirculation vessel after ozonation. For each of the four ferric chelant studies, chelants were added to the wastewater recirculation vessels just prior to starting the injection of ozone and recirculation of the liquids. The injection of ozone was applied over the prescribed period and sampled as before in the ozone only experiment.

[14] = Full scale lagoon treatment system (spray)
Description: The system was designed to treat sulfide and recirculate sulfide-free wastewater from the lagoon in a continuous manner and reuse the treated wastewater in such a manner as to gain substantially complete control of hydrogen sulfide escaping to the atmosphere. […] The capping of the lagoon was accomplished by spray applying sulfide-free treated wastewater using a spray application system specifically designed to gain complete or nearly complete coverage of the surface area of the lagoon. Importantly, the spray application system imparted minimal mixing to the untreated surface of the lagoon. Any significant mixing of the surface water within the lagoon could be problematic for hydrogen sulfide release. Gently spray-applying sulfide-free water over the lagoon served to effectively cap the lagoon with minimal mixing, thus preventing gaseous sulfide from escaping to the atmosphere. Further, by assuring that the treated wastewater returning to the lagoon surface contained excess oxidation treatment chemicals, any fugitive sulfide that might have risen through the cap could be mitigated.
The water proceeding eastward turns north at the end of the lagoon and travelling back westward where it is pumped out of the lagoon at the northwest end.
This system is primarily driven by a large electrically powered Cornell pump denoted by the “Pump” box in FIG. 5. The pump sits on a 40′ wide elevated dyke that runs down the center of the lagoon. Water is pumped out of the northwest side of the lagoon via a 12″ HDPE “Pump Intake” pipe and flows through the Cornell pump and then down the dyke in the center of the lagoon via an 8″ HDPE main pipe. […] These injection locations are designated by the “1” and “2” circles in FIG. 5. T valves were installed into the 8″ main line, redirecting a portion of the water from the 8″ main pipe out to each of 27 different floats via 2″ HDPE piping. The Nelson F100 series Big Gun spray irrigation heads were mounted on the floats and directly connected to the 2″ HDPE piping. Around 47 PSI of water pressure was constantly maintained to allow sufficient working pressure for each of the 27 spray irrigation heads. The chemical being dosed into the line via the Verdeflex pumps was carefully calculated to ensure sufficient Ferric Gluconate and Hydrogen Peroxide were present in the line to not only ensure substantially complete destruction of all sulfide in the line but to provide a surplus of chemicals for additional treatment upon contact with any sulfides in the pond. […]
Prior to treatment initiation, samples were taken starting on Mar. […] A quantity of 45 gallons per hour (540 gallons per 12 hour period) of 50% Peroxide and 20 gallons per hour of Ferric Gluconate (240 gallons per 12 hour period) were pumped into the lagoon via the sprayer system.

[15] = Full scale lagoon treatment system using eductors; settings: across all stations, eductor system, September 2016
Protocol: Due to concerns about fugitive airborne spray entering the environment and, potentially, drifting onto a nearby public road, SMBSC management requested an underwater eductor system be installed to replace the Nelson spray irrigation system described previously. Therefore, a full scale trial using a commercially available surface chemical application system and method was tested at the SMBSC. The objective of the test was to determine if a system designed to apply oxidation treatment chemicals just below the surface of the large wastewater lagoon at SMBSC was as effective as the spray system that minimized surface mixing. It was surmised that the system would achieve similar results to the spray application approach due to minimal disturbance to lagoon subsurface wastewater. The eductor system slowly spun in a circular pattern similar to the circular pattern of the spray system. The Serfilco eductor system pulled wastewater from the contaminated lagoon using the identical system of treatment used for the Nelson spray system. The only variation was the application mechanism of eduction versus spray. The eduction system relied on the force of the wastewater flowing back into the eductor distribution arms to force the circular motion of the arms distributing oxidation chemicals. All aspects of the system were the same except for the distribution system. […]

[16] = SMBSC pilot demonstration, lagoon spray system; settings: Trial 1, samplings T2-T5
Description: The exemplary system and method was designed to utilize 1.7 million gallons per day of the 35 to 40 million gallons of high strength wastewater within the lagoon as a carrier for treatment chemistry. Flow into the lagoon varied. Influent was mostly high organic strength wastewater. A typical daily flow rate approximated 500,000 gallons.
The utilized system and method sought to efficiently cover as much of the lagoon surface with treated wastewater containing excess quantities of treatment chemistry as practically possible. For spray nozzles, the system and method utilized 100 series Big Gun sprinklers (available from Nelson Irrigation Corporation of Walla Walla, Wash.) oriented in a pattern to assure maximum coverage of targeted surface area of the lagoon. […] The pressure varied depending on the demand of the spray nozzles and surface coverage demand. Further, the effectiveness relied somewhat on delivery of sufficient volume of treated wastewater containing excess treatment chemistry to the surface of the lagoon to adequately suppress sulfide at or near the surface of the lagoon. […] Treatment chemistry for the returned treated wastewater was dosed to treat sulfide within the uptake wastewater and over dosed with added treatment chemistry to accommodate the expected need for treatment within the surface water of the receiving lagoon. […] This dosage application assumed these ratios for each hour of continuous treatment.
The method used for this pilot study for dosing was estimated by taking surface and mid-depth samples of the untreated lagoon and testing for sulfide.
Station D1 referred to a dam where water flowed down through the dam into the remaining run of the retention lagoon.

[17] = spray system on, April 2016, date by row, same dosage

In the case of `OO` [H2O2, hydrogen peroxide], the “2,4-D” value [1] is reported as 230 ppb, the Benzene after treatment [2] is reported as 15.1 ppb and the Ethylbenzene after treatment [3] is reported as 13.0 ppb. The Toluene after treatment [4] was 55.7 ppb, the Xylenes after treatment [5] was 67.0 ppb and the MtBE after treatment [6] was 15.7 ppb. For the same molecule, the “Fecal Coliform” value [7] was 53 cfu/100 mL, the “H2S reading after 10 minutes” value ([8]; 1 ml of 15 mg/ml H2O2) was 6 ppm and the “H2S reading after 10 minutes” value ([8]; 3 ml of 15 mg/ml H2O2) was 4 ppm. The “H2S reading after 10 minutes” value ([8]; 5 ml of 15 mg/ml H2O2 sprayed on 5 L water with 10 ppm total sulfide, pH 7.0) was 3 ppm, the “H2S Above H2O” value [9] was 17 PPM and the “Total Sulfide 1 CM Depth” value [9] was 8.5 mg/L. The “Total Sulfide 2 CM Depth” value [9] was 9.1 mg/L, the “Total Sulfide 3 CM Depth” value [9] was 9.3 mg/L and the “Percentage of Sulfide Treated After 30 Minutes” value ([10]; 1.5:1.0 peroxide to sulfide, Dose 3, 38.7 ppm H2O2 only (control run of the chelant named in the row)) was 59.0 and 46.5 and 56.3 and 57.0 and 55.5 and 54.7. The “Percentage of Sulfide Treated After 30 Minutes” value ([10]; 2.5:1.0 peroxide to sulfide, Dose 3, 105.8 ppm H2O2 only (control run of the chelant named in the row)) was 69.0 and 69.5 and 67.8 and 66.4 and 44.4 and 69.3 and 70.2, the “sulfide reduction after 15 minutes, average” value ([10]; hydrogen peroxide alone, 2.5:1.0 peroxide to sulfide) was 52% and the “sulfide treatment after 15 minutes” value ([10]; peroxide alone, 37.8 ppm level) was 42.9%.
In the case of `O=C([O-])[C@H](O)[C@@H](O)[C@H](O)[C@H](O)CO.[Na+]` [Sodium gluconate, sodium gluconate], the readily biodegradable [11] is given as 98%.
With ferric gluconate [Fe-GLC] the “Test 1 CFUs/ml 19.8 ppm H2O2 6 ppm Fe-Chelant” value [12] was 98 CFUs/ml, the “Test 2 CFUs/ml 39.6 ppm H2O2 12 ppm Fe-Chelant” value [12] was 28 CFUs/ml and the “Test 3 CFUs/ml 12 ppm Fe-Chelant” value ([12]; chelant alone, no H2O2) was 22,600 CFUs/ml. For the same molecule, the “Overall total percentage of sulfide reduction” value [13] was 90%, the “Overall total percentage of sulfide reduction” value ([13]; listed as Fe-Gluconate) was 90% and the sulfide remaining ([13]; 5 min contact) was 3.40 ppm. For the same molecule, the sulfide remaining ([13]; 10 min contact) was 2.80 ppm, the sulfide remaining ([13]; 20 min contact) was 1.40 ppm and the average sulfide measurement ([14]; one month, five sampling locations, spray system, untreated average 1.06 mg/l) was 0.06 mg/L. For the same molecule, the “Aqueous Sulfide, Station 1 (surface)” value [14, 17] was 0.00 mg/L, the “Aqueous Sulfide, Station 4 (surface)” value [14, 17] was 0.00 mg/L and the “sulfide in wastewater spray upon exiting the spray nozzles” value ([14]; with proper dosage of oxidation chemicals) was 0.00 mg/L. For the same molecule, the average sulfide measurement [15] was 2.14 mg/L, the “Aqueous Sulfide, location 1S” value ([16]; same dosage, T1 before treatment 1.35) was 0 ppm and 0.00 ppm and the “Gaseous Sulfide downwind at lagoon edge, Station 2” value [16] was 0.00 ppm. For the same molecule, the “Gaseous Sulfide downwind at lagoon edge, Station 3” value [16] was 0.00 ppm and the “sulfide reduction after 15 minutes” value ([10]; 20 ppm chelant and 105.8 ppm hydrogen peroxide) was 86.8%.
